Literature values, collected in patent publication US20050147578A1, “Topical cosmetic composition having a natural plant active ingredient and method of using same” (Avon Products, Inc., priority 2001, published 2005).

System: Heat shock 70 protein

## O=[As]O [Sodium arsenite, sodium arsenite]
  production of heat shock protein (known effect of positive control): stimulate the production of heat shock protein
